# Laboratory results published in patent US8304408B2, “Wnt signaling inhibitors, and methods for making and using them” (The Regents of the University of California, priority 2007, dated 2012).
# What was measured:
# [1] = system: TCF/LEF dependent reporter gene (wnt/beta-catenin signaling) in HEK293 cells; test: Top-flash assay: HEK293 cells transfected with a TCF/LEF dependent reporter gene; assay type: cell-based; settings: for inhibition of wnt-signaling path in HEK293 reporter assay: even at concentrations of 50 uM
# Procedure: FIG. 2 in graphic form illustrates data comparing inhibition of beta-catenin in a “Top-flash assay.” In this assay HEK 293 cells were transfected with a TCF/LEF dependent reporter gene and expression plasmid for Dsh. After overnight incubation, the cells were treated with the indicated amounts of debromohymenialdesine (“MC-001”, or dBHD, or dbHD), which is compound I in FIG. 1, analog II and III, or vehicle alone, after which the reporter gene activity was measured. All cells were also transfected with a reporter gene control for testing the transfection efficiency. In FIG. 2, the first pair of bars (to the left, closest to the y, or “fold induction”, axis) is DMSO, then moving right, the second pair of bars is 5 μM debromohymenialdesine, or dbHD (compound I of FIG. 1), then 10 μM dbHD, then 20 μM dbHD, then 50 μM compound II of FIG. 1, then 50 μM compound III of FIG. 1.
# A dose response curve for debromohymenialdesine, or “MC-001”, or dbHD (or dBHD), (compound I of FIG. 1) from the HEK293 cell line assay is shown in FIG. 3. The curve is well behaved showing a relatively steep sigmoidal inhibition-concentration profile with an IC50 value of 2 uM.
# [2] = system: chronic myelogenous leukemia stem cell (CML HSC); test: Replating efficiency (self-renewal) of CML hematopoietic stem cells; assay type: cell-based; settings: for self-renewal / replating efficiency of leukemia stem cells: 2 uM drug concentration; for inhibition of CML HSC replating: replating efficiency after day 10 colony replating in methylcellulose
# Procedure: (§1) On day 10, individual colonies were plucked and replicated in new methylcellulose and the replating efficiency was determined.
# [3] = system: GMP from advanced phase CML; test: Replating efficiency of CML GMP; assay type: cell-based; settings: replating efficiency after day 10 colony replating in methylcellulose
# Procedure: as §1
# normal HSC = test: Replating of normal HSC; assay type: cell-based; settings: at doses that inhibited CML HSC and GMP
# Procedure: as §1
# BALB/C mice = test: Toxicity tests in mice; assay type: in vivo; settings: for toxic / adverse effects in mice: doses up to 100 mg/kg
# Solubility in water = assay type: physicochemical
# [4] = log P (partition coefficient); assay type: physicochemical
# Storage stability = assay type: physicochemical; settings: at RT
molecule,measurement,setting,value
"NC1=N[C@]23CCCN2C(=O)c2cc(Br)c(Br)n2[C@@H]3N1 [dibromophakelin, reference compound]",inhibition of wnt-signaling path in HEK293 reporter assay,[1],did not inhibit
"NC1=NC(=O)/C(=C2\CCNC(=O)c3[nH]ccc32)N1 [debromohymenialdesine, (4Z)-4-(2-amino-5-oxo-3,5-dihydro-4H-imidazol-4-ylidene)-4,5,6,7-tetrahy-dropyrrolo(2,3-c)azepin-8(1H)-one]",inhibition of wnt-signaling in HEK293 cells transfected with a TCF/LEF dependent reporter gene,[1],inhibited
same,IC50,"[1]; Homo sapiens, HEK293 cells, TCF/LEF dependent reporter gene, read-out: IC50 from dose response curve, HEK293 cell line assay",2 µM
same,activity of synthetically obtained compound versus natural product,"[1]; compound made by total synthesis, cell based reporter system",comparable to the natural product
same,self-renewal / replating efficiency of leukemia stem cells,[2],completely abrogated
same,self-renewal / replating efficiency of leukemia stem cells,[2]; listed as MC-001,completely abrogates
same,inhibition of CML HSC replating,[2],inhibited
same,inhibition of CML GMP replating,[3],inhibited
same,effect on normal HSC replating,normal HSC,spared
same,toxic / adverse effects in mice,BALB/C mice; listed as MC-001,no adverse affects
same,toxic / adverse effects in mice,BALB/C mice; listed as dBHD,no toxic effects
same,tolerability in mice,"BALB/C mice; mouse, in vivo",well tolerated
same,solubility,Solubility in water,22 µg/mL
same,logP,[4],-0.58
same,Storage stability,Storage stability,several months
"c1ccc2nc3ccccc3c-2nc1 [indoloazepine, reference compound]",inhibition of wnt-signaling path in HEK293 reporter assay,[1],did not inhibit
"NC1=NC(=O)/C(=C2\CCNC(=O)c3[nH]c(Br)cc32)N1 [Hymenialdesine, hymenialdesine, reference compound]",inhibition of wnt-signaling path in HEK293 reporter assay,[1],did not inhibit
"Recombinant Dkk1: recombinant Dkk1, a Wnt inhibitor used as comparator (protein, UniProt O94907 32-266, looked up) Dickkopf-related protein 1: TLNSVLNSNAIKNLPPPLGGAAGHPGSAVSAAPGILYPGGNKYQTIDNYQPYPCAEDEECGTDEYCASPTRGGDAGVQICLACRKRRKRCMRHAMCCPGNYCKNGICVSSDQNHFRGEIEETITESFGNDHSTLDGYSRRTTLSSKMYHTKGQEGSVCLRSSDCASGLCCARHFWSKICKPVLKEGQVCTKHRRKGSHGLEIFQRCYCGEGLSCRIQKDHHQASNSSRLHTCQRH",inhibition of CML HSC replating,[2],did not inhibit
